Reference: patent US12329753B2, “Phosphodiesterase inhibitor treatment” (Cyrano Therapeutics, Inc., priority 2008, dated 2025)
Marks after values point to notes of the source that are not given here.

Experiments:
[1] = tested on: patients with hyposmia; experiment: Hedonic (H) value of odors, -100-0-+100 scale, open trial of oral theophylline; type: in vivo, human
Procedure: In addition, each patient graded the hedonic (H) value of each odor presented for these same odor concentrations (from 10^−2M—an absolute odor concentration using a −100-0-+100 scale). […] Results were obtained by calculating the arithmetical sum of each correct recognition response for each odor with respect to its pleasantness, unpleasantness or neutrality. Arithmetic M±SEM were obtained for each treatment group for each odor presented.
After determination of hyposmia, patients were treated in an open label, fixed design, controlled open trial. Patients were given an oral extended release theophylline in divided daily doses taken in the middle of breakfast and lunch. All patients were initially given 200 mg of theophylline; changes in this dose were made based upon subjective responses to therapy. If at a subsequent return visit, patients reported ≥5% subjective improvement in overall smell function, they continued on this same dose of theophylline and were reevaluated after four to six months of continued treatment. Results from any subsequent return from these improved patients were not included in any subsequent data report. All subsequent comparisons between treated and untreated patients were made only between those patients continuing in the study compared to their own measurements obtained in the untreated state. If patients reported <5% subjective improvement, their theophylline dose was increased by 200 mg daily and they were scheduled for retesting at the study site after two to four months at this new dosage. For patients that reported <5% improvement, this sequence continued until patients reached 800 mg of theophylline, at which time the study was considered completed.
(§1) Patients returned for reevaluation after two to four months of treatment. Measurements of blood serum theophylline were measured by a fluorescence polarization assay (Abbott, Chicago, IL). At this time, subjective changes in smell function were measured independently (compared to patient's memory of previous normal smell function monitored by use of the patients' daily measurements) using the scale from −100-0-+100 previously described (vs). After independently recording their subjective responses, smell function was measured for all four odors with DT, RT, ME and H determined without recourse to prior measurements.

[2] = Blood serum theophylline, fluorescence polarization assay (Example 1); type: in vivo, human
Procedure: as §1

[3] = tested on: cAMP; experiment: Parotid saliva cAMP, 96 plate spectrophotometric assay; type: in vivo, human
Procedure: Parotid saliva was collected from each patient by application of a Lashley cup over Stensen's duct with lingual stimulation by placement of concentrated lemon juice. Saliva was collected in plastic tubes and stored at −20° C. until assayed. cAMP and cGMP were measured in saliva by a sensitive 96 plate spectrophotometric assay (R&D Systems, Minneapolis, MN).
All patients were placed in a fixed design open label clinical trial with treatment with oral theophylline. Treatment consisted of fixed treatment periods of two-eight months with sequential doses of the drug at 200 mg, 400 mg and 600 mg. At termination of each of these intervals, patients returned to study site for reevaluation. At the end of each interval subjective responses to treatment were measured with a modification of the 0-100 scale previously used (vs). […] Theophylline was assayed by a fluorescence polarization assay (Abbott, Chicago, IL), as previously described.
Data for the cyclic nucleotides from these 31 patients was not analyzed until the entire study of the 312 patients in Example 1 was assembled and analyzed in its entirety. […] The two patient groups were also analyzed post hoc with respect to type of smell loss and etiology of smell loss.

[4] = asthma therapy; cited from earlier work
[5] = oral 400 mg daily, 2-6 months, all patients (120), mean ± SEM
[6] = oral 600 mg daily, 2-12 months, all patients (160), mean ± SEM
[7] = oral 800 mg daily, 2-12 months, all patients (28), mean ± SEM
[8] = oral 800 mg, Type I hyposmia (12), mean ± SEM

Cn1c(=O)c2[nH]cnc2n(C)c1=O [theophylline]
increase in H, amyl acetate ([1]; oral 200 mg): 2% | increase in H, nitrobenzene ([1]; oral 200 mg): 2% | increase of H value, amyl acetate ([1]; oral 200 mg, not statistically significant): 50% | change in H (more pleasant), amyl acetate ([1]; oral 400 mg): 1% | change in H (more pleasant), nitrobenzene ([1]; oral 400 mg): 4% | change in H, pyridine ([1]; oral 400 mg): 9% | change in H, thiophene ([1]; oral 400 mg): 7% | decrease of H value, thiophene ([1]; oral 400 mg): 40% | hedonic estimation (H), amyl acetate [1, 5]: 3 ± 2^ % | hedonic estimation (H), nitrobenzene [1, 5]: 8 ± 3^a % | hedonic estimation (H), pyridine [1, 5]: −26 ± 3^b % | hedonic estimation (H), thiophene [1, 5]: −19 ± 2^d % | increase of H value, nitrobenzene ([1]; oral 400 mg, not statistically significant): 50% | hedonic estimation (H), amyl acetate [1, 6]: 4 ± 1% | hedonic estimation (H), nitrobenzene [1, 6]: 8 ± 2^d % | hedonic estimation (H), pyridine [1, 6]: −19 ± 2 ^ % | hedonic estimation (H), thiophene [1, 6]: −14 ± 2 ^ % | decrease of H value, pyridine ([1]; oral 800 mg): 55% | decrease of H value, thiophene ([1]; oral 800 mg): 37% | increase of H value, amyl acetate ([1]; oral 800 mg): about 50% | increase of H value, nitrobenzene ([1]; oral 800 mg): about 50% | hedonic estimation (H), amyl acetate [1, 7]: 8 ± 5% | hedonic estimation (H), nitrobenzene [1, 7]: 13 ± 7 ^ % | hedonic estimation (H), pyridine [1, 7]: −22 ± 6% | hedonic estimation (H), thiophene [1, 7]: −15 ± 4% | hedonic value (row printed R), amyl acetate [1, 8]: −1 ± 4 ^ % | hedonic value (row printed R), nitrobenzene [1, 8]: 2 ± 2^a % | hedonic value (row printed R), pyridine [1, 8]: −11 ± 5^a % | hedonic value (row printed R), thiophene [1, 8]: −4 ± 2^a % | mean serum theophylline ([2]; oral 200 mg daily): 4.0±0.2 | mean serum theophylline ([2]; oral 400 mg daily): 7.4±0.4 | parotid saliva cAMP ([3]; oral 400 mg, patients with improved smell function (12), mean ± SEM): 1.22 ± 0.33 pmol/mL | change of saliva cAMP ([3]; oral 200, 400, 600 mg, unimproved patients): essentially no change | therapeutic range for plasma concentrations [4]: 10 to 20 mg/L
